9 molecules from BindingDB's records for doi:10.1074/jbc.M809430200 (The Scripps Research Institute, 2009) can be followed below.

For test [1], the target named is Mitogen-activated protein kinase 10 (Homo sapiens, UniProt P53779). The test is described as follows: Fluorescence Assay. To be noted: pH 7; 22 °C. As to the method:
(§1) Homogeneous time-resolved fluorescence assay is an enzyme inhibition studies that were performed in 384-well polystyrene homogeneous time-resolved fluorescence plates (grainier).

Test [2] addresses Mitogen-activated protein kinase 8 (Homo sapiens, UniProt P45983). The test is described as follows: Fluorescence Assay. The note with it: pH 7; 22 °C. As to the method: as §1
The target in test [3] is Mitogen-activated protein kinase 14 (p38α) (Homo sapiens) (UniProt Q16539). The test is described as follows: Homogeneous time-resolved fluorescence assay is an enzyme inhibition studies that were performed in 384-well polystyrene homogeneous time-resolved fluorescence plates (grainier). To be noted: pH 7.

Sequence of Mitogen-activated protein kinase 10 (P53779 whole entry): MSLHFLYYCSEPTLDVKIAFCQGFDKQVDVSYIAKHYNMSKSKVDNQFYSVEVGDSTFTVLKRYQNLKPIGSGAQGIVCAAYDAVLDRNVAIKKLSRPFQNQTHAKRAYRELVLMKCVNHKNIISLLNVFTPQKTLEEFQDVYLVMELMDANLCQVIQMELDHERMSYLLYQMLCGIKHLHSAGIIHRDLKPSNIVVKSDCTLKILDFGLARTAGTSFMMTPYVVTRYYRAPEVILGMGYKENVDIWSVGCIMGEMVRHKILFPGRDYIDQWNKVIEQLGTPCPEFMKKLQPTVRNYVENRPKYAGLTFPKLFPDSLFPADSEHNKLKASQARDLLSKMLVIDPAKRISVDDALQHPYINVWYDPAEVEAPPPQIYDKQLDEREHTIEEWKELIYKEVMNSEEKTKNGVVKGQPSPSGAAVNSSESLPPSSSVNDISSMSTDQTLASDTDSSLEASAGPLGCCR
Sequence of Mitogen-activated protein kinase 8 (P45983 whole entry): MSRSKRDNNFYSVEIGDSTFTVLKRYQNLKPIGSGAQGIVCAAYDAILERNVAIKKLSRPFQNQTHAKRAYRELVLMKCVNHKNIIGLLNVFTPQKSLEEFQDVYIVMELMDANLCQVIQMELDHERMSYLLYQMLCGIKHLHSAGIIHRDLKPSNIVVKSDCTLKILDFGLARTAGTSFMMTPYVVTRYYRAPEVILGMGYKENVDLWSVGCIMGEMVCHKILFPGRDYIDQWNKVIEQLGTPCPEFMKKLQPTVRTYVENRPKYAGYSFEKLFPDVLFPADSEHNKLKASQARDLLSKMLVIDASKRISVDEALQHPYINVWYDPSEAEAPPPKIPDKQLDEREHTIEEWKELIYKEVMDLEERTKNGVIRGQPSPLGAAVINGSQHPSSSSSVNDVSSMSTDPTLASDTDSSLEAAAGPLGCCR

Turning to `COc1cc(NC(=O)c2cccc(-n3cc(NC(=O)Nc4ccccc4)cn3)c2)cc(OC)c1OC` [Aminopyrazole inhibitor, 3451], the IC50 (usually the concentration that gives 50% inhibition) in test [1] is 25 nM; in test [2], 400 nM; in test [3], 3700 nM.

`COc1cc(NC(=O)c2cccc(-n3cc(NC(=O)Nc4ccccc4Cl)cn3)c2)cc(OC)c1OC` [Aminopyrazole inhibitor, 3528]: the IC50 was 23 nM in test [1], 560 nM in test [2] and greater than 20000 nM in test [3].

In the case of `COc1cc(NC(=O)c2cccc(-n3cc(NC(=O)Nc4cccc(C)c4)cn3)c2)cc(OC)c1OC` [Aminopyrazole inhibitor, 3576], the IC50 in test [1] was 7 nM; in test [2], 170 nM; in test [3] it was greater than 20000 nM.

In turn, `COc1cc(NC(=O)c2cccc(-n3cc(NC(=O)Nc4ccc(Cl)cc4)cn3)c2)cc(OC)c1OC` [Aminopyrazole inhibitor, 3583] yielded an IC50 in test [1] of 480 nM.

For the molecule `Cc1cccc(NC(=O)Nc2cnn(-c3cccc(C(=O)NCCN4CCOCC4)c3)c2)c1` [Aminopyrazole inhibitor, 4018], the IC50 in test [1] was 2100 nM; in test [2], greater than 20000 nM; in test [3] it was greater than 20000 nM.

For the molecule `O=C(Nc1cnn(-c2cccc(C(=O)NCCCN3CCOCC3)c2)c1)Nc1ccccc1Cl` [Aminopyrazole inhibitor, 4276], the IC50 in test [1] was 350 nM; in test [3], greater than 20000 nM.

Regarding `Cc1cncc(NC(=O)c2cccc(-n3cc(NC(=O)Nc4ccccc4Cl)cn3)c2)c1` [Aminopyrazole inhibitor, 4326], the IC50 was 55 nM in test [1], 1400 nM in test [2] and greater than 20000 nM in test [3].

In the case of `Cc1cncc(NC(=O)c2cc(N(C)C)cc(-n3cc(NC(=O)Nc4ccccc4Cl)cn3)c2)c1` [Aminopyrazole inhibitor, 4642], the values for the IC50 in test [1], in test [2] and in test [3] were 2200 nM, greater than 20000 nM and greater than 20000 nM, respectively.

Take `Cc1cncc(NC(=O)c2cc(N3CCOCC3)cc(-n3cc(NC(=O)Nc4ccccc4Cl)cn3)c2)c1` [Aminopyrazole inhibitor, 4643]: the results for the IC50 in test [1], in test [2] and in test [3] were 1500 nM, greater than 20000 nM and greater than 20000 nM, respectively.
